21 compounds from ChEMBL document CHEMBL1201862, “PubChem BioAssay data set” (2004) can be followed below.

Assay [1] concerns the target Induced myeloid leukemia cell differentiation protein Mcl-1 (Homo sapiens, UniProt Q07820). The class given is functional.
Assay [2] can be described thus: P. falciparum Dd2 growth inhibitors, dose response, SYBR Green, cherry-picked samples (AID 1159567). The assay is classed as functional, cell-based.
Assay [3] in a line: viability of PTEN-deleted HCT116 cells – cell-based, HCT116 PTEN knockout, dose response (AID 1047).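 Note: HCT116 colon tumor cells with PTEN knocked out; cells exposed to compound for 60 hours before readout; potency for loss of cell viability measured by luminescence.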 The assay is classed as functional.
A short description of assay [4]: viability of HCT116 lacking mutant beta-catenin – cell-based, human colon tumor, dose response (AID 1045).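 Note: HCT116 colon tumor cells with beta catenin knocked out; cells exposed to compound for 60 hours.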 The class given is functional.
For assay [5], the target named is T1, Polyadenylate-binding protein 1 (Homo sapiens, UniProt P11940). The assay can be described thus: MLLE binding blockers, Cy5 peptide tracer – biochemical, fluorescence polarization, Cy5-PAM2 peptide, secondary, miRNA deadenylation inhibitor project, dose response (AID 602260). The assay is classed as functional. The conditions noted are these: read-out: IC50_Mean.
T1 sequence (P11940 whole entry): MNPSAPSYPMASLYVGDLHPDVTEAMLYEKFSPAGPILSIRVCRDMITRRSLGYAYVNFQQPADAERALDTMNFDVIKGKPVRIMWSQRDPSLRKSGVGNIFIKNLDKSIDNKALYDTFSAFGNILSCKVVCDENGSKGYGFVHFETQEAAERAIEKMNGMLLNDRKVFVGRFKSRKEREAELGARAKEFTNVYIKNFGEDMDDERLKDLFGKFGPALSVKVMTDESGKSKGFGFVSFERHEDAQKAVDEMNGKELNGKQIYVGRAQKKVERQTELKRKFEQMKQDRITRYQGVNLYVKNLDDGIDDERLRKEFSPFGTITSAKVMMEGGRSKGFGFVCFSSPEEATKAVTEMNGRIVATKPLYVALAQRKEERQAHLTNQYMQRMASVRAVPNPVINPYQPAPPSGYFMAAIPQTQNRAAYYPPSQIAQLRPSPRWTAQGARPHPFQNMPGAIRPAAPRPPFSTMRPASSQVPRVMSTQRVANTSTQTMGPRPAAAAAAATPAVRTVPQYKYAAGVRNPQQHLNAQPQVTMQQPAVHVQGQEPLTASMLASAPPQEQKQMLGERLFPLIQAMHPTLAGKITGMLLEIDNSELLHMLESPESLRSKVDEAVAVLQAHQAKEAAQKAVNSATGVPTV

Assay [6] in a line: cells. The assay is classed as functional, cell-based.
Assay [7] concerns the target T1, Polyadenylate-binding protein 1. As to the kind of experiment: MLLE domain peptide-binding blockers, IC50 – biochemical, fluorescence polarization, FITC-PAM2 peptide, dose response (AID 602259). The assay is classed as functional. As to conditions: read-out: IC50_Mean.
Assay [8] can be described thus: cells. The assay is classed as functional, cell-based. This is another data set of the same source.
Assay [9] can be described thus: HEK-293T viability loss after treatment – luminescence, T-cell screen hits, cytotoxicity control for TCR NF-kB inhibitor project, dose response (AID 489026).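 Note: cells exposed to compound about 14 hours before the viability readout.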 The class given is functional, cell-based.
A short description of assay [10]: reduction of Shn3 3'UTR-driven luciferase in osteoblasts – cell-based, Clone20 osteoblasts, firefly luciferase, cherry-picked, dose response (AID 624132).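 Note: firefly luciferase luminescence from reporter carrying the Shn3 3'UTR in osteoblasts.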 The assay is classed as functional.
Assay [11] is described as follows: loss of viability in HepG2 cells – cell-based, CellTiter-Glo, cherry-picked, cytotoxicity control for Shn3 inhibitor project, dose response (AID 624134). The assay is classed as functional.
Another assay deals with INS1. As to the kind of experiment: INS-1E survival protection against cytokine death – cell-based, luminescence, retest, dose response (AID 449756).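 Note: cell death triggered by IL-1 beta plus TNF-alpha plus IFN-gamma mixture; protective hits raise ATP signal compared with cytokine alone wells.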 The class given is functional. As to conditions: Rattus norvegicus.
Assay [12] addresses T2, Calpain-2 catalytic subunit (Sus scrofa, UniProt P43367).
T2 sequence (P43367 whole entry): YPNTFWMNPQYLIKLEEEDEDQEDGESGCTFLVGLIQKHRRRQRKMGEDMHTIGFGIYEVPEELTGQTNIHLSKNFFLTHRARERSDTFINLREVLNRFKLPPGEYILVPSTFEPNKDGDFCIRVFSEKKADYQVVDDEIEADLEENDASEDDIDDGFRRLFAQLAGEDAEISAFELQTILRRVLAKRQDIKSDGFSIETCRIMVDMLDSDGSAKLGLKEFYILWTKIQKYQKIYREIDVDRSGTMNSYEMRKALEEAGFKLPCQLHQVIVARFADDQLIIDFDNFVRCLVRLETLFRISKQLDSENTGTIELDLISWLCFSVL
As to the kind of experiment: m-calpain protease blockers, concentration series – biochemical, fluorogenic peptide substrate, dose response (AID 1420). The class given is functional.

Assay [13] can be described thus: DRD fibroblast viability loss – cell-based, non-viral oncogenic, luminescence, dose response (AID 1934). The assay is classed as functional. As to conditions: Homo sapiens.
In assay [14] the test system is BJ. The assay can be described thus: BJ-TERT fibroblast viability loss – cell-based, RAS-independent, luminescence, dose response (AID 1933). The assay is classed as functional. As to conditions: Homo sapiens.
The test system of assay [15] is BJ. As to the kind of experiment: cells. The assay is classed as functional, cell-based. As to conditions: Homo sapiens.
The subject of assay [16] is BJ. As to the kind of experiment: BJ-TERT-LT-ST fibroblast viability loss – cell-based, RAS-independent, luminescence, dose response (AID 1935).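 Note: BJ fibroblasts immortalized with TERT plus LT and ST oncogenes.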 The assay is classed as functional. As to conditions: Homo sapiens.

Activity calls are given as the source filed them.

Sequence of Induced myeloid leukemia cell differentiation protein Mcl-1 (Q07820 whole entry): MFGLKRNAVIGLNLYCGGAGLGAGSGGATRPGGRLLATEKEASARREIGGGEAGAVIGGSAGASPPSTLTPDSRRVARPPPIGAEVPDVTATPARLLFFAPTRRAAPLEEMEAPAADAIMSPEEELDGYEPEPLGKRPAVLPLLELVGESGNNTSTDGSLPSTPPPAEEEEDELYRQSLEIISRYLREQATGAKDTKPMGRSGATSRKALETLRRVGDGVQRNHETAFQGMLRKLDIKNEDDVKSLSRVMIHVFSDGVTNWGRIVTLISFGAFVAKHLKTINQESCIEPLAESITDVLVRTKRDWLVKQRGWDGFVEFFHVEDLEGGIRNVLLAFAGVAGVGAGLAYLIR

Regarding `O=c1c2c3nc4ccccc4nc3n(Cc3ccccc3)c2ncn1Cc1ccco1`, the IC50 in assay [1] is given as 6.14 µM (not active). A word on the AC50: it is the concentration giving half of the maximal activity seen. In the case of `COc1ccc(-c2ccc([C@@H]3[C@H]4CNC[C@@H]3N4C(=O)Nc3ccc(C(F)(F)F)cc3)cc2)cc1`, the AC50 in assay [2] was 15 µM (active). In general, EC50 refers to the concentration giving half of the maximal effect. On to `O=C(NC1CCCCC1)c1nc[nH]c1C(=O)Nc1ccc([N+](=O)[O-])cc1`, for which the EC50 was 8.84 µM (active) in [3] and 8.87 µM (active) in assay [4]. Turning to `CCCC#Cc1cnc2c(c1)C(=O)N([C@@H](C)CO)C[C@H](C)[C@H](CN(C)C(=O)Nc1cccc(F)c1)O2`, the AC50 in assay [2] is 8.83 µM (active). `COC(=O)c1ccc(/C=C/C(=O)c2ccc(OC)c(OC)c2)cc1`: the EC50 was 8.4 µM (active) in assay [3] and 7.25 µM (active) in [4].

With `CCc1nc(SCC(=O)c2ccccc2)c2ccccc2n1`, the IC50 in assay [5] and in assay [7] was > 66 µM (inactive) throughout. In addition, the EC50 in the assay “cells [6]” and in the assay “cells [8]” was > 350 µM (not active) throughout. Consider `COc1cc(/C=C(/NC(C)=O)C(=O)O)cc(Cl)c1OCc1ccc(Br)cc1`, for which the IC50 in assay [1] is given as 3.47 µM (not active). With `CCC(=O)N1CC2(C1)CN(Cc1ccc(Cl)cc1)[C@@H](CO)c1[nH]c3cc(OC)ccc3c12`, the AC50 in assay [2] is 7.24 µM (active). Take `C=CCC1(C#N)C(=S)N=C2CC(C)(C)CC(O)=C2C1c1ccc(Br)cc1` (stereo not given): the EC50 was 14.6 µM (active) in [3] and 14.9 µM (active) in assay [4]. In the same order, the values of `O=C(/C=C/c1ccc([N+](=O)[O-])cc1)c1cccnc1` are 5.8 µM (active) and 4.4 µM (active). As for `CCOC(=O)N1CCN(C(=O)C2CCCN(Cc3nc(-c4ccc(Cl)cc4)oc3C)C2)CC1` (stereo not given), the IC50 in assay [9] was > 80 µM (inactive). For `CO[C@H]1CN(C)C(=O)c2cc(NC(=O)C3CC3)ccc2OC[C@@H](C)N(Cc2cc(F)ccc2F)C[C@H]1C`, the AC50 in assay [2] is 6.09 µM (active). As for `Cc1ccc(S(=O)(=O)NCc2ccncc2)cc1C`, the values for the AC50 (in assay [10]; in assay [11]; in the assay on INS1) were 0.585 µM (active), 2.43 µM (active) and 3.06 µM (active), respectively. Further, the IC50 in assay [9] is > 80 µM (inactive). For `COc1cc(-c2cc(C(=O)Nc3c(Cl)cc(Cl)cc3Cl)c3ccccc3n2)cc(OC)c1OC`, the EC50 in [3] was 26 µM (active); in [4] it was 44.6 µM (active). Regarding `Cn1cc([N+](=O)[O-])c(C(=O)Nc2cc(Oc3cccnc3)cc([N+](=O)[O-])c2)n1`, the IC50 in [12] is 15.3 µM (not active). Also, the EC50 is 1.24 µM (active) in [3] and 1.02 µM (active) in assay [4].

`CO[C@H]1CN(C)C(=O)c2cc(NC(=O)C3CC3)ccc2OC[C@H](C)N(Cc2cccc(F)c2)C[C@H]1C`: the AC50 in assay [2] is 6.05 µM (active). As for `Cc1ccc2nc(N3CC(=O)Nc4ccccc43)nc(-c3ccccc3)c2c1`, the EC50 in [3] is 11.5 µM (active); in [4], 10.4 µM (active).

Regarding `Cc1cc(N(CCO)CCO)ccc1C(c1ccc(N(CCO)CCO)cc1C)c1ccccc1Cl`, the IC50 in assay [1] was 2.71 µM (active). In the case of `Cc1nc(-n2ncc(C#N)c2N)c2c3c(sc2n1)CCC3`, the EC50 in assay [3] is 24.8 µM (active); in assay [4], 32 µM (active). In the case of `N#C[C@H]1[C@H](c2ccc(C#CC3CCCCC3)cc2)[C@@H](CO)N1S(=O)(=O)c1ccccc1`, the AC50 in assay [2] was 3.24 µM (active). In the case of `CCOC(=O)c1c(C)[nH]c(C(=O)N/N=C/c2ccc(Br)cc2)c1C`, the EC50 was 0.387 µM (active) in [13], 0.327 µM (active) with BJ [14], 35.1 µM (inconclusive) in the assay with BJ [15] and 0.733 µM (inconclusive) in the assay on BJ [16]. The IC50 in assay [9] is > 80 µM (inactive).
